Test results: patent US10206937B2, “Boronic acid derivatives and therapeutic uses thereof” (Qpex Biopharma, Inc., priority 2014, dated 2019)

Tested on: strains of Enterobacteriaceae producing various carbapenemases (class A, D and B; 104 strains)
Experiment: Antibiotics potentiation by Compound 27 (MIC; meropenem, doripenem, ertapenem, cefepime)
Assay type: cell-based
Conditions: + 27 = with Compound 27 at fixed 4 μg/ml

COc1ccc2c(c1C(=O)O)OB(O)C(Sc1nnc(N)s1)C2 (centres unmarked) [E + 27]
MIC (strain CF1012 Citrobacter freundii (KPC-2)): X (MIC of less than 1 μg/mL) | MIC (strain CF1021 Citrobacter freundii (CMY-type; VIM-1)): X (MIC of less than 1 μg/mL) | MIC (strain CF1022 Citrobacter freundii (SHV-12(2be), TEM-OSBL(2b); IMP-8)): X (MIC of less than 1 μg/mL) | MIC (strain CF1023 Citrobacter freundii (SHV-12(2be), TEM-OSBL(2b); CTX-M-3; CMY-34; NDM-1)): X (MIC of less than 1 μg/mL) | MIC (strain CL1080 Enterobacter cloacae (IMP-1)): Y (MIC of 1 μg/mL to 10 μg/mL) | MIC (strain EA1019 Enterobacter aerogenes (SHV-5, VIM-1)): X (MIC of less than 1 μg/mL) | MIC (strain EC1007 Escherichia coli (KPC-3)): X (MIC of less than 1 μg/mL) | MIC (strain EC1061 Escherichia coli (NDM-1, CMY-6)): X (MIC of less than 1 μg/mL) | MIC (strain EC1062 Escherichia coli (OXA-48, CTX-M-15)): X (MIC of less than 1 μg/mL) | MIC (strain EC1064 Escherichia coli (NDM-1, CMY-6, CTX-M-15)): Z (MIC of greater than 10 μg/mL) | MIC (strain EC1065 Escherichia coli (IMP-1)): X (MIC of less than 1 μg/mL) | MIC (strain EC1068 Escherichia coli (VIM-1)): X (MIC of less than 1 μg/mL) | MIC (strain EC1069 Escherichia coli (CTX-M-27; NDM-1)): X (MIC of less than 1 μg/mL) | MIC (strain EC1070 Escherichia coli (TEM-OSBL(2b); CMY-42; NDM-5)): X (MIC of less than 1 μg/mL) | MIC (strain EC1072 Escherichia coli (CTX-M-3; NDM-1)): X (MIC of less than 1 μg/mL) | MIC (strain ECL1004 Enterobacter cloacae (NMC-A)): X (MIC of less than 1 μg/mL) | MIC (strain ECL1026 Enterobacter cloacae (KPC-2, TEM-1)): X (MIC of less than 1 μg/mL) | MIC (strain ECL1036 Enterobacter cloacae (KPC-3, TEM-1)): X (MIC of less than 1 μg/mL) | MIC (strain ECL1045 Enterobacter cloacae (VIM-1)): Y (MIC of 1 μg/mL to 10 μg/mL) | MIC (strain ECL1055 Enterobacter cloacae (KPC-3, TEM)): X (MIC of less than 1 μg/mL) | MIC (strain ECL1057 Enterobacter cloacae (NDM-1, TEM-1, CTX-M-15)): Z (MIC of greater than 10 μg/mL) | MIC (strain ECL1058 Enterobacter cloacae (KPC-3, SHV-11, TEM-1)): Y (MIC of 1 μg/mL to 10 μg/mL) | MIC (strain ECL1059 Enterobacter cloacae (KPC-3, SHV-12, TEM-1)): X (MIC of less than 1 μg/mL) | MIC (strain ECL1061 Enterobacter cloacae (KPC-3, Hyper AmpC expression)): Y (MIC of 1 μg/mL to 10 μg/mL) | MIC (strain ECL1082 Enterobacter cloacae (VIM-1)): X (MIC of less than 1 μg/mL) | MIC (strain ECL1084 Enterobacter cloacae (CTX-M-15; ACT-16; NDM-1)): X (MIC of less than 1 μg/mL) | MIC (strain ECL1085 Enterobacter cloacae (SHV-31(2be), TEM-1(2b); CTX-M-15; NDM-1)): X (MIC of less than 1 μg/mL) | MIC (strain ECL1086 Enterobacter cloacae (VIM-31, OXA-48(c))): Y (MIC of 1 μg/mL to 10 μg/mL) | MIC (strain ECL1087 Enterobacter cloacae (VIM-1)): X (MIC of less than 1 μg/mL) | MIC (strain ECL1088 Enterobacter cloacae (TEM-1(2b); CTX-M-14; ACT-type; VIM-1)): X (MIC of less than 1 μg/mL) | MIC (strain ECL1089 Enterobacter cloacae (ACT-type; IMP-1)): Z (MIC of greater than 10 μg/mL) | MIC (strain ECL1090 Enterobacter cloacae (TEM-1(2b); CTX-M-22; ACT-type; IMP-8)): X (MIC of less than 1 μg/mL) | MIC (strain ECL1091 Enterobacter cloacae (VIM-1)): X (MIC of less than 1 μg/mL) | MIC (strain ECL1092 Enterobacter cloacae (TEM-OSBL(2b); ACT-32; VIM-1)): X (MIC of less than 1 μg/mL) | MIC (strain ECL1093 Enterobacter cloacae (TEM-OSBL(2b); ACT-32; VIM-1)): X (MIC of less than 1 μg/mL) | MIC (strain ECL1094 Enterobacter cloacae (VIM-1)): Y (MIC of 1 μg/mL to 10 μg/mL) | MIC (strain ECL1096 Enterobacter cloacae (CMY-4, VIM-4, OXA-48(c))): X (MIC of less than 1 μg/mL) | MIC (strain ECL1097 Enterobacter cloacae (SHV-31(2be), TEM-OSBL(2b); CTX-M-15; ACT-31; NDM-1)): X (MIC of less than 1 μg/mL) | MIC (strain ECL1098 Enterobacter cloacae (TEM-OSBL(2b); DHA-1; ACT-16; NDM-1)): X (MIC of less than 1 μg/mL) | MIC (strain KP1001 Klebsiella pneumoniae (KPC TEM SHV)): Z (MIC of greater than 10 μg/mL) | MIC (strain KP1002 Klebsiella pneumoniae (KPC TEM SHV)): X (MIC of less than 1 μg/mL) | MIC (strain KP1003 Klebsiella pneumoniae (KPC TEM SHV)): X (MIC of less than 1 μg/mL) | MIC (strain KP1004 Klebsiella pneumoniae (KPC-2, TEM-1, SHV-11)): X (MIC of less than 1 μg/mL) | MIC (strain KP1008 Klebsiella pneumoniae (KPC-2)): X (MIC of less than 1 μg/mL) | MIC (strain KP1014 Klebsiella pneumoniae (VIM-1, TEM, SHV)): X (MIC of less than 1 μg/mL) | MIC (strain KP1054 Klebsiella pneumoniae (VIM-1, SHV-11)): X (MIC of less than 1 μg/mL) | MIC (strain KP1059 Klebsiella pneumoniae (VIM-1, SHV-11)): Y (MIC of 1 μg/mL to 10 μg/mL) | MIC (strain KP1061 Klebsiella pneumoniae (KPC-3, SHV-11, TEM-1)): X (MIC of less than 1 μg/mL) | MIC (strain KP1064 Klebsiella pneumoniae (KPC-2, SHV-11, TEM-1)): Z (MIC of greater than 10 μg/mL) | MIC (strain KP1065 Klebsiella pneumoniae (VIM-1, SHV-11)): X (MIC of less than 1 μg/mL) | MIC (strain KP1070 Klebsiella pneumoniae (KPC-2, SHV-11, TEM-1)): X (MIC of less than 1 μg/mL) | MIC (strain KP1074 Klebsiella pneumoniae (KPC-3, SHV-11, TEM)): Z (MIC of greater than 10 μg/mL) | MIC (strain KP1081 Klebsiella pneumoniae (NDM-1, TEM-1, SHV-11, CMY-6, CTX-M-15)): Y (MIC of 1 μg/mL to 10 μg/mL) | MIC (strain KP1082 Klebsiella pneumoniae (KPC-2, SHV-1)): X (MIC of less than 1 μg/mL) | MIC (strain KP1083 Klebsiella pneumoniae (KPC-3, SHV-1, TEM-1)): X (MIC of less than 1 μg/mL) | MIC (strain KP1084 Klebsiella pneumoniae (KPC-3, SHV-11, TEM-1)): Z (MIC of greater than 10 μg/mL) | MIC (strain KP1086 Klebsiella pneumoniae (OXA-48, CTX-M-15, TEM, SHV)): Z (MIC of greater than 10 μg/mL) | MIC (strain KP1087 Klebsiella pneumoniae (KPC-2, CTX-M-15, SHV-11, TEM-1)): Y (MIC of 1 μg/mL to 10 μg/mL) | MIC (strain KP1088 Klebsiella pneumoniae (KPC-3, SHV-11, TEM-1)): X (MIC of less than 1 μg/mL) | MIC (strain KP1089 Klebsiella pneumonias (OXA-181, CTX-M-15, TEM, SHV)): X (MIC of less than 1 μg/mL) | MIC (strain KP1095 Klebsiella pneumoniae (KPC-2 TEM-1 SHV-1)): X (MIC of less than 1 μg/mL) | MIC (strain KP1096 Klebsiella pneumoniae (KPC-2 TEM-181 SHV-11)): X (MIC of less than 1 μg/mL) | MIC (strain KP1097 Klebsiella pneumonias (IMP-1)): X (MIC of less than 1 μg/mL) | MIC (strain KP1098 Klebsiella pneumoniae (IMP-26)): Y (MIC of 1 μg/mL to 10 μg/mL) | MIC (strain KP1104 Klebsiella pneumoniae (KPC TEM)): X (MIC of less than 1 μg/mL) | MIC (strain KP1105 Klebsiella pneumoniae (KPC TEM SHV)): X (MIC of less than 1 μg/mL) | MIC (strain KP1159 Klebsiella pneumoniae (SHV-1(2b); CTX-M-15; IMP-4)): Y (MIC of 1 μg/mL to 10 μg/mL) | MIC (strain KP1160 Klebsiella pneumoniae (SHV-28(2be); CTX-M-15; IMP-26)): Y (MIC of 1 μg/mL to 10 μg/mL) | MIC (strain KP1161 Klebsiella pneumoniae (NDM-1)): X (MIC of less than 1 μg/mL) | MIC (strain KP1164 Klebsiella pneumoniae (SHV-12(2be); VIM-1)): X (MIC of less than 1 μg/mL) | MIC (strain KP1165 Klebsiella pneumoniae (SHV-11(2b); CTX-M-15; VIM-27)): Z (MIC of greater than 10 μg/mL) | MIC (strain KP1166 Klebsiella pneumoniae (SHV-5(2be); VIM-26)): Y (MIC of 1 μg/mL to 10 μg/mL) | MIC (strain KP1167 Klebsiella pneumoniae (SHV-12(2be); VIM-1)): X (MIC of less than 1 μg/mL) | MIC (strain KP1169 Klebsiella pneumoniae (SHV-11(2b); VIM-1)): X (MIC of less than 1 μg/mL) | MIC (strain KP1170 Klebsiella pneumoniae (SHV-11(2b); CTX-M-15; NDM-1)): X (MIC of less than 1 μg/mL) | MIC (strain KP1172 Klebsiella pneumoniae (SHV-31(2be); DHA-1; VIM-1)): X (MIC of less than 1 μg/mL) | MIC (strain KP1173 Klebsiella pneumoniae (TEM-33(2br); CTX-M-15; IMP-1)): X (MIC of less than 1 μg/mL) | MIC (strain KP1174 Klebsiella pneumoniae (CTX-M-14; IMP-1)): X (MIC of less than 1 μg/mL) | MIC (strain KP1175 Klebsiella pneumoniae (SHV-OSBL(2b); VIM-1)): X (MIC of less than 1 μg/mL) | MIC (strain KP1177 Klebsiella pneumoniae (SHV-OSBL(2b), TEM-OSBL(2b); CTX-M-15; NDM-1)): X (MIC of less than 1 μg/mL) | MIC (strain KP1178 Klebsiella pneumoniae (SHV-OSBL(2b;) TEM-OSBL(2b); CTX-M-15; NDM-1)): X (MIC of less than 1 μg/mL) | MIC (strain KP1179 Klebsiella pneumoniae (SHV-12(2be), TEM-OSBL(2b); CTX-M-15; NDM-7)): X (MIC of less than 1 μg/mL) | MIC (strain KP1180 Klebsiella pneumoniae (SHV-OSBL(2b), TEM-OSBL(2b); CTX-M-15; DHA-1; IMP-26)): X (MIC of less than 1 μg/mL) | MIC (strain KP1181 Klebsiella pneumoniae (SHV-OSBL(2b); CTX-M-15; IMP-26)): X (MIC of less than 1 μg/mL) | MIC (strain KP1183 Klebsiella pneumoniae (SHV-OSBL(2b), TEM-OSBL(2b); CTX-M-15; NDM-1)): X (MIC of less than 1 μg/mL) | MIC (strain KP1184 Klebsiella pneumoniae (SHV-OSBL(2b); IMP-1)): X (MIC of less than 1 μg/mL) | MIC (strain KP1185 Klebsiella pneumoniae (SHV-OSBL(2b), TEM-OSBL(2b); IMP-4)): Y (MIC of 1 μg/mL to 10 μg/mL) | MIC (strain KP1186 Klebsiella pneumoniae (CTX-M-15; NDM-1)): X (MIC of less than 1 μg/mL) | MIC (strain KP1187 Klebsiella pneumoniae (SHV-55(2be), TEM-OSBL(2b); CTX-M-15; NDM-1)): X (MIC of less than 1 μg/mL) | MIC (strain KP1188 Klebsiella pneumoniae (SHV-OSBL(2b); CTX-M-15; NDM-1)): Y (MIC of 1 μg/mL to 10 μg/mL) | MIC (strain KP1189 Klebsiella pneumoniae (TEM-OSBL(2b); CTX-M-15; CTX-M-27; NDM-1)): X (MIC of less than 1 μg/mL) | MIC (strain KPM1123 Klebsiella pneumoniae (KPC-2 TEM SHV)): X (MIC of less than 1 μg/mL) | MIC (strain KPM1202 Klebsiella pneumoniae (KPC SHV TEM)): X (MIC of less than 1 μg/mL) | MIC (strain KPM1203 Klebsiella pneumoniae (KPC SHV TEM)): X (MIC of less than 1 μg/mL) | MIC (strain KPM1344 Klebsiella pneumoniae (VIM-1)): X (MIC of less than 1 μg/mL) | MIC (strain KPM1345 Klebsiella pneumoniae (VIM-1 SHV)): X (MIC of less than 1 μg/mL) | MIC (strain KPM1347 Klebsiella pneumoniae (NDM-1 SHV CTX-M-15)): X (MIC of less than 1 μg/mL) | MIC (strain KX1017 Klebsiella oxytoca (KPC-2, OXA-2, SHV-30)): X (MIC of less than 1 μg/mL) | MIC (strain KX1018 Klebsiella oxytoca (KPC-2, SHV-40, OXY-1)): X (MIC of less than 1 μg/mL) | MIC (strain KX1019 Klebsiella oxytoca (KPC-2, OXA-2)): X (MIC of less than 1 μg/mL) | MIC (strain PM1024 Proteus mirabilis (TEM-1(2b); CMY-16; VIM-1)): X (MIC of less than 1 μg/mL) | MIC (strain PM1026 Proteus mirabilis (DHA-1; IMP-26)): X (MIC of less than 1 μg/mL) | MIC (strain PM1027 Proteus mirabilis (VIM-5)): X (MIC of less than 1 μg/mL) | MIC (strain SM1023 Serratia marcescens (VIM-4)): Y (MIC of 1 μg/mL to 10 μg/mL)
